Reference: the supplement of paper PMC11451515

How the values were obtained:
Conditions in all cases: 48 h
[1] = system: SEM cells; assay: AUC of viability dose-response curve (% viability x log10 dose units); higher = less sensitive
Summary of the method: (§1)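 Leukemia cells adapted to each medium were seeded in 1536-well plates (500 or 1000 cells/well). They were dosed with library compounds in DMSO at 11 threefold doses, 47 μM to 0.79 nM, for 48 h at 37°C. CellTiter-Glo One luminescence was normalised per plate to DMSO and cell-free wells. Area under the curve was integrated by trapezoidal rule over log10 doses on a four-parameter log-logistic fit; curves exceeding full viability were scaled and curves failing quality control removed.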

[2] = system: P12-Ichikawa; assay: as above
Summary of the method: as §1

[3] = system: NOMO1; assay: as above
Summary of the method: as §1

[4] = system: SEM cells; assay: cell viability relative to DMSO control; higher = less cytotoxic
Summary of the method: (§2)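 Cells were incubated for 48 h at 37°C before CellTiter-Glo One luminescence was read. The cells were NOMO1 or SEM (500 cells/well) or P12-Ichikawa (1000 cells/well) leukemia cells, adapted for at least four passages in each medium and seeded in 1536-well plates (5 μl). Dosing used library compounds in DMSO applied by pin over 11 threefold points, 47 μM to 0.79 nM. Viability is the per-plate percentage of DMSO wells, with cell-free wells as background.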

[5] = system: P12-Ichikawa; assay: as above
Summary of the method: as §2

[6] = system: NOMO1; assay: as above
Summary of the method: as §2

COc1ccc(-c2ccc3c(N4CCOC[C@@H]4C)nc(N4CCOC[C@@H]4C)nc3n2)cc1CO
AUC of viability dose-response curve
Conditions | [1] | [2] | [3]
HPLM + 10% dialyzed FBS | 310 | 353 | 293
RPMI 5 mM glucose + 10% FBS | 310 | 296 | 359
RPMI 5 mM glucose + 10% dialyzed FBS | 316 | 311 | 337

cell viability [%]
Conditions | [4] | [5] | [6]
HPLM + 10% dialyzed FBS, 0.000781 µM | 101 | 108 | 93.6
HPLM + 10% dialyzed FBS, 0.00234 µM | 58.2 | 82.1 | 76.5
HPLM + 10% dialyzed FBS, 0.00702 µM | 96.6 | 97 | 93.1
HPLM + 10% dialyzed FBS, 0.0211 µM | 92.1 | 82.8 | 82.1
HPLM + 10% dialyzed FBS, 0.0632 µM | 87.3 | 83.9 | 74.5
HPLM + 10% dialyzed FBS, 0.19 µM | 62.2 | 77.7 | 64.6
HPLM + 10% dialyzed FBS, 0.569 µM | 60.3 | 75.2 | 58.7
HPLM + 10% dialyzed FBS, 1.71 µM | 53.4 | 74.7 | 55.1
HPLM + 10% dialyzed FBS, 5.12 µM | 50.9 | 64.3 | 48
HPLM + 10% dialyzed FBS, 15.4 µM | 33 | 37.6 | 9.86
HPLM + 10% dialyzed FBS, 46.1 µM | 4.42 | 6.75 | 3.58
RPMI 5 mM glucose + 10% FBS, 0.000781 µM | 110 | 93.9 | 103
RPMI 5 mM glucose + 10% FBS, 0.00234 µM | 52 | 58.7 | 75.7
RPMI 5 mM glucose + 10% FBS, 0.00702 µM | 118 | 80.3 | 94
RPMI 5 mM glucose + 10% FBS, 0.0211 µM | 101 | 77.5 | 95.6
RPMI 5 mM glucose + 10% FBS, 0.0632 µM | 89.7 | 66.2 | 90.4
RPMI 5 mM glucose + 10% FBS, 0.19 µM | 51 | 59.7 | 84.5
RPMI 5 mM glucose + 10% FBS, 0.569 µM | 67.5 | 60.5 | 75.1
RPMI 5 mM glucose + 10% FBS, 1.71 µM | 55.8 | 58.9 | 72.4
RPMI 5 mM glucose + 10% FBS, 5.12 µM | 36.5 | 54.3 | 63.4
RPMI 5 mM glucose + 10% FBS, 15.4 µM | 12.6 | 42.4 | 41.7
RPMI 5 mM glucose + 10% FBS, 46.1 µM | 4.05 | 18.6 | 4.25
RPMI 5 mM glucose + 10% dialyzed FBS, 0.000781 µM | 105 | 103 | 102
RPMI 5 mM glucose + 10% dialyzed FBS, 0.00234 µM | 53 | 65.6 | 63.9
RPMI 5 mM glucose + 10% dialyzed FBS, 0.00702 µM | 110 | 86.6 | 98.6
RPMI 5 mM glucose + 10% dialyzed FBS, 0.0211 µM | 88.9 | 78.7 | 86
RPMI 5 mM glucose + 10% dialyzed FBS, 0.0632 µM | 82.2 | 76.1 | 85.9
RPMI 5 mM glucose + 10% dialyzed FBS, 0.19 µM | 64.7 | 70.8 | 69
RPMI 5 mM glucose + 10% dialyzed FBS, 0.569 µM | 67.4 | 66.5 | 64
RPMI 5 mM glucose + 10% dialyzed FBS, 1.71 µM | 56.2 | 58.3 | 70.5
RPMI 5 mM glucose + 10% dialyzed FBS, 5.12 µM | 45.7 | 47.2 | 57.4
RPMI 5 mM glucose + 10% dialyzed FBS, 15.4 µM | 34.3 | 39 | 52.4
RPMI 5 mM glucose + 10% dialyzed FBS, 46.1 µM | 3.94 | 10.3 | 5.83
